BigSolDB 2.1

C[C@@]12C[C@H]3OC(=O)[C@@H]1CO[C@]14O[C@@]5([C@H]2C1=O)[C@@]3(C)OC(=O)[C@@]5(O)CC[C@H]1[C@H]4C[C@@H](O)[C@@]2(O)CC=CC(=O)[C@]12C
solubility (mole fraction)
Conditions | in acetone | in chloroform | in ethanol | in ethyl acetate | in methanol | in water
283.2 K | 0.0173 | 0.0046 | 0.0039 | 0.003 | 0.0081 | 0.0012
293.2 K | 0.022 | 0.0047 | 0.0047 | 0.0032 | 0.0092 | 0.0021
298.2 K | 0.0238 | 0.0049 | 0.0058 | 0.0036 | 0.0101 | 0.0027
303.2 K | 0.0265 | 0.0053 | 0.0071 | 0.0042 | 0.0109 | 0.0028
308.2 K | 0.0286 | 0.0058 | 0.0089 | 0.0052 | 0.0122 | 0.0029
313.2 K | 0.0309 | 0.006 | 0.0107 | 0.0059 | 0.0159 | 0.003
